Results taken from patent publication US7736624B2, “Methods and compositions for diagnostic and therapeutic targeting of COX-2” (priority 2006, dated 2010).
Where two headings read alike, the source gives them in different places.

Key:
COX-2 = target: T1, COX-2 (Homo sapiens, UniProt P35354); test: IC50 determinations using purified enzymes (TLC assay), COX-2; type: biochemical; set-up: made in house; host or cells: Sf9 insect cells
T1 sequence (P35354 18-604): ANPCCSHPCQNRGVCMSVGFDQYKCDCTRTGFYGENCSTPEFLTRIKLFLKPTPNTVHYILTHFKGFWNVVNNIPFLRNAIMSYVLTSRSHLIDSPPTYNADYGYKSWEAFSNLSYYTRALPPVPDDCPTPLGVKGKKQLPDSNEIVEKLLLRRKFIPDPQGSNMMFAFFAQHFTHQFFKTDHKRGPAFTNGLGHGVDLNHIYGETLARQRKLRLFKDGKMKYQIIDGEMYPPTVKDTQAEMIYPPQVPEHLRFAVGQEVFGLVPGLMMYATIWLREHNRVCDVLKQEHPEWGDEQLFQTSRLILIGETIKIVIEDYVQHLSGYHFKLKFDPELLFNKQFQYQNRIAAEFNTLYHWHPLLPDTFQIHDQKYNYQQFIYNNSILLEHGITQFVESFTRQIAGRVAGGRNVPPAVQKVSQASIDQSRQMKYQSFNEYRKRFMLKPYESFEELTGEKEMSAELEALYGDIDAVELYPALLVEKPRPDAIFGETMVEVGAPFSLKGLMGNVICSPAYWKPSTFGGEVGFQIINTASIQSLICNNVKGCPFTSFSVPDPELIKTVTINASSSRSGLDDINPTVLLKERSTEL
Description: (§1) Those skilled in the art will appreciate that an evaluation of the selectivity and efficacy of binding of the NSAID derivative to the COX-2 enzyme, e.g., after the derivative is synthesized, can be desirable. […] One example of an in vitro screening method takes advantage of the fact that both human and murine recombinant COX-2 can be expressed and isolated in pure form from an Sf9 cell expression system. […] Alternatively, membrane preparations from outdated human platelets can provide a source of human COX-1. […] The reaction is stopped by the addition of ethanol/methanol/1 M citrate, pH 4.0 (30:4:1). The extracted products are separated by thin layer chromatography (TLC), which allows quantitation of total product formation as well as assessment of product distribution. This assay is useful to define IC50 values for inhibition of either enzyme, and to determine time-dependency of inhibition. It also provides information concerning changes in products formed as a result of inhibition.
(§2) Reactions were terminated by solvent extraction in Et2O/CH3OH/1 M citrate, pH 4.0 (30:4:1). The phases were separated by centrifugation at 2000 g for 5 minutes and the organic phase was spotted on a 20×20 cm TLC plate (Lieselgel 60, EMD Chemicals, Inc., Gibbstown, N.J., United States of America). The plate was developed in EtOAc/CH2Cl2/glacial AcOH (75:25:1) at 4° C. Radiolabeled prostanoid products were quantitatively determined with a radioactivity scanner available from Bioscan, Inc. (Washington, D.C., United States of America). The percentage of total products observed at different concentrations of the presently disclosed compositions was divided by the percentage of products observed for protein samples preincubated for the same amount of time with DMSO.

ovine COX-1 = target: T2, ovine COX-1 (Ovis aries, UniProt P05979); test: IC50 determinations using purified enzymes (TLC assay), COX-1; type: biochemical; details: assayed against purified enzymes
T2 construct: can be purified from ovine seminal vesicles by standard procedures; from tissue; host or cells: ovine seminal vesicles
T2 sequence (P05979 25-600): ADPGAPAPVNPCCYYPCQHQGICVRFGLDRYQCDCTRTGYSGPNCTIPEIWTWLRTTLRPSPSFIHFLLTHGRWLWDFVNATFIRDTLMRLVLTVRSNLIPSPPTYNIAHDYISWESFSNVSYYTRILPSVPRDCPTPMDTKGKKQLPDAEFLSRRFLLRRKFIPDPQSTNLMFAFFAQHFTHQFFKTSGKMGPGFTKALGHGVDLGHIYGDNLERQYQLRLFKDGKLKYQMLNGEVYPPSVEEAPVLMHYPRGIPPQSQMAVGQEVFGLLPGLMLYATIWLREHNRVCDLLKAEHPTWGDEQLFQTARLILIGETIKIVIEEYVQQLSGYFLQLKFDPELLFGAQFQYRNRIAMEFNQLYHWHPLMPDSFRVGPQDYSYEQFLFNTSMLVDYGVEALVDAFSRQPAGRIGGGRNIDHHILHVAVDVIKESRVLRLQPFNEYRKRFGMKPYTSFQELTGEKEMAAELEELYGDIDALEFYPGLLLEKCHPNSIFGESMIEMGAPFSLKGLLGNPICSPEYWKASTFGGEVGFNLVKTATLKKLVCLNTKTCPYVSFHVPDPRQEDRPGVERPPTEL
Description: as §1, §2

[1] = Table 3, assayed against purified enzymes, read-out: IC50 COX-2
[2] = Table 2, assayed against purified enzymes, read-out: IC50 COX-2

Compound	IC50 (COX-2; [1])	IC50 (ovine COX-1; Table 3)	IC50 (COX-2; purified enzyme, read-out: COX-2 IC50)	IC50 (ovine COX-1; Table 1)	IC50 (COX-2; [2])
COc1ccc2c(c1)c(CC(=O)NCCCNC(=O)c1ccc(C(=O)[O-])c(-c3c4ccc(=[N+](C)C)cc-4oc4cc(N(C)C)ccc34)c1)c(C)n2C(=O)c1ccc(Cl)cc1 [Compound 27aaa]	3.9 µM	> 25 µM			
COc1ccc2c(c1)c(CC(=O)NCCCN1CCN(CCCNC(=O)c3ccc(C(=O)[O-])c(C4=c5cc6c7c(c5Oc5c4cc4c8c5CCCN8CCC4)CCC[N+]=7CCC6)c3)CC1)c(C)n2C(=O)c1ccc(Cl)cc1 [Compound 27bbb]	> 25 µM	> 25 µM			
COc1ccc2c(c1)c(CC(=O)NCCN1CCN(C(=O)c3ccc(C(=O)[O-])c(C4=c5cc6c7c(c5Oc5c4cc4c8c5CCCN8CCC4)CCC[N+]=7CCC6)c3)CC1)c(C)n2C(=O)c1ccc(Cl)cc1 [Compound 27ccc]	> 25 µM	> 25 µM			
COc1ccc2c(c1)c(CC(=O)N1CCNCC1)c(C)n2C(=O)c1ccc(Cl)cc1 [Compound 27ddd]	> 25 µM	1.8 µM			
COc1ccc2c(c1)c(CC(=O)N1CCN(C(=O)c3ccc(C(=O)[O-])c(C4=c5cc6c7c(c5Oc5c4cc4c8c5CCCN8CCC4)CCC[N+]=7CCC6)c3)CC1)c(C)n2C(=O)c1ccc(Cl)cc1 [Compound 27fff]	> 25 µM	> 25 µM			
COc1ccc2c(c1)c(CC(=O)NCCNC(=O)c1ccc(C3=c4cc5c6c(c4Oc4c3cc3c7c4CCCN7CCC3)CCC[N+]=6CCC5)c(C(=O)[O-])c1)c(C)n2C(=O)c1ccc(Cl)cc1 [Compound 27ggg]	2.8 µM	0.5 µM			
COc1ccc2c(c1)c(CC(=O)N1CCN(C(=O)c3ccc(C4=c5cc6c7c(c5Oc5c4cc4c8c5CCCN8CCC4)CCC[N+]=7CCC6)c(C(=O)[O-])c3)CC1)c(C)n2C(=O)c1ccc(Cl)cc1 [Compound 27hhh]	1.3 µM	5.8 µM			

The remaining lines, values ahead:

IC50 (COX-2; [1])	IC50 (ovine COX-1; Table 3)	IC50 (COX-2; purified enzyme, read-out: COX-2 IC50)	IC50 (ovine COX-1; Table 1)	IC50 (COX-2; [2])	Compound
0.134 µM	0.214 µM				COc1ccc2c(c1)c(CC(=O)NCCCNS(=O)(=O)c1ccc(/N=N/c3ccc(N(C)C)cc3)cc1)c(C)n2C(=O)c1ccc(Cl)cc1 [Compound 27bb]
> 25 µM	> 25 µM				COc1ccc2c(CC(=O)NCCNC(=O)Cc3c(C)n(C(=O)c4ccc(Cl)cc4)c4ccc(OC)cc34)cc(=O)oc2c1 [Compound 27dd]
0.6 µM	> 25 µM				COc1ccc2c(c1)c(CC(=O)NCCCNC(=O)c1cc3ccccc3oc1=O)c(C)n2C(=O)c1ccc(Cl)cc1 [Compound 27ee]
0.031 µM	> 25 µM				CCN(CC)c1ccc2cc(C(=O)NCCCCNC(=O)Cc3c(C)n(C(=O)c4ccc(Cl)cc4)c4ccc(OC)cc34)c(=O)oc2c1 [Compound 27ff]
0.053 µM	> 25 µM				CCN(CC)c1ccc2cc(C(=O)NCCCNC(=O)Cc3c(C)n(C(=O)c4ccc(Cl)cc4)c4ccc(OC)cc34)c(=O)oc2c1 [Compound 27gg]
		0.107 µM	> 4 µM		COc1ccc2c(c1)c(CC(=O)NCCNC(=O)/C=C(C)/C=C/C=C(C)/C=C/C1=C(C)CCCC1(C)C)c(C)n2C(=O)c1ccc(Cl)cc1 [Compound 27h]
0.51 µM	> 25 µM				COc1ccc2c(c1)c(CC(=O)NCCNC(=O)/C=C/c1ccc(N(C)C)cc1)c(C)n2C(=O)c1ccc(Cl)cc1 [Compound 27hh]
> 25 µM	5.35 µM				COc1ccc2c(c1)c(CC(=O)NCCNC(=S)Nc1ccc(-c3c4ccc(=O)cc-4oc4cc(O)ccc34)c(C(=O)O)c1)c(C)n2C(=O)c1ccc(Cl)cc1 [Compound 27jj]
> 25 µM	> 25 µM				COc1ccc2c(c1)c(CC(=O)NCCCNC(=S)Nc1ccc(-c3c4ccc(=O)cc-4oc4cc(O)ccc34)c(C(=O)O)c1)c(C)n2C(=O)c1ccc(Cl)cc1 [Compound 27kk]
3.1 µM	> 25 µM				COc1ccc2c(c1)c(CC(=O)NCCCCNC(=S)Nc1ccc(-c3c4ccc(=O)cc-4oc4cc(O)ccc34)c(C(=O)O)c1)c(C)n2C(=O)c1ccc(Cl)cc1 [Compound 27ll]
				0.148 µM	COc1ccc2c(c1)c(CC(=O)Nc1ccc(S(=O)(=O)Nc3cc(OC)nc(OC)n3)cc1)c(C)n2C(=O)c1ccc(Cl)cc1 [Compound 27u]
				> 25 µM	Cc1ccc(-c2cc(CCC(=O)O)nn2-c2ccc(S(C)(=O)=O)cc2)cc1 [Compound 29e]
